According to article PMC5218480 (PLoS ONE, 2017):

Test system: MV-4-11 cells
Assay: Gene expression microarray analysis (Affymetrix PrimeView) and GSEA
Type: cell-based, human
Design: RFU PODN (11730768_x_at) / Fold change /veh PODN (11730768_x_at) / RFU LINC00158 (11744669_a_at) / Fold change /veh LINC00158 (11744669_a_at) / RFU DUSP10 (11751237_a_at) / Fold change /veh DUSP10 (11751237_a_at) / RFU ID3 (11757404_x_at) / Fold change /veh ID3 (11757404_x_at) / RFU PLEKHG5 (11737974_s_at) / Fold change /veh PLEKHG5 (11737974_s_at) / RFU LRRC4B (11730491_at) / Fold change /veh LRRC4B (11730491_at) / RFU GIMAP4 (11747438_a_at) / Fold change /veh GIMAP4 (11747438_a_at) / RFU KRT8 (11758183_x_at) / Fold change /veh KRT8 (11758183_x_at) / RFU CNN1 (11734310_a_at) / Fold change /veh CNN1 (11734310_a_at) / RFU VPS37D (11726825_at) / Fold change /veh VPS37D (11726825_at) / RFU C10orf10 (11716522_x_at) / Fold change /veh C10orf10 (11716522_x_at) / RFU KIR2DL2 /// KIR2DL4 /// KIR2DL5A /// KIR2DL5B /// KIR2DS1 /// KIR2DS2 /// KIR2DS3 /// KIR2DS4 /// KIR3DL3 /// KIR3DL3 /// KIR3DS1 (11738374_at) / Fold change /veh KIR2DL2 /// KIR2DL4 /// KIR2DL5A /// KIR2DL5B /// KIR2DS1 /// KIR2DS2 /// KIR2DS3 /// KIR2DS4 /// KIR3DL3 /// KIR3DL3 /// KIR3DS1 (11738374_at) / RFU C1QL1 (11718748_at) / Fold change /veh C1QL1 (11718748_at) / RFU TMPRSS4 (11747572_a_at) / Fold change /veh TMPRSS4 (11747572_a_at) / RFU HAMP (11756126_x_at) / Fold change /veh HAMP (11756126_x_at) / RFU RNFT2 (11725882_a_at) / Fold change /veh RNFT2 (11725882_a_at) / RFU NR4A2 (11747474_a_at) / Fold change /veh NR4A2 (11747474_a_at) / RFU ABCC12 (11746883_a_at) / Fold change /veh ABCC12 (11746883_a_at) / RFU TMEM136 (11760407_x_at) / Fold change /veh TMEM136 (11760407_x_at) / RFU CLDN22 /// WWC2 (11732394_at) / Fold change /veh CLDN22 /// WWC2 (11732394_at) / RFU HLA-DPB1 (11760878_x_at) / Fold change /veh HLA-DPB1 (11760878_x_at) / RFU SPINT1 (11716480_a_at) / Fold change /veh SPINT1 (11716480_a_at) / RFU GAP43 (11754022_s_at) / Fold change /veh GAP43 (11754022_s_at) / RFU A4GNT (11735810_at) / Fold change /veh A4GNT (11735810_at) / RFU PRB3 (11715151_x_at) / Fold change /veh PRB3 (11715151_x_at) / RFU TUBB4B (11761932_at) / Fold change /veh TUBB4B (11761932_at) / RFU CAPN14 (11732068_a_at) / Fold change /veh CAPN14 (11732068_a_at) / RFU TMCC2 (11721928_a_at) / Fold change /veh TMCC2 (11721928_a_at) / RFU IRGQ (11745062_a_at) / Fold change /veh IRGQ (11745062_a_at) / RFU FAM174B (11720279_a_at) / Fold change /veh FAM174B (11720279_a_at) / RFU TMPRSS4 (11748680_a_at) / Fold change /veh TMPRSS4 (11748680_a_at) / RFU FAM212B (11763350_a_at) / Fold change /veh FAM212B (11763350_a_at) / RFU PLEKHG5 (11743358_a_at) / Fold change /veh PLEKHG5 (11743358_a_at) / RFU ZSCAN30 (11745921_a_at) / Fold change /veh ZSCAN30 (11745921_a_at) / RFU CMKLR1 (11741424_a_at) / Fold change /veh CMKLR1 (11741424_a_at) / RFU LOC101060620 /// MAPK8IP1 (11723275_at) / Fold change /veh LOC101060620 /// MAPK8IP1 (11723275_at) / RFU SPTSSB (11747773_x_at) / Fold change /veh SPTSSB (11747773_x_at) / RFU PRSS12 (11739890_at) / Fold change /veh PRSS12 (11739890_at) / RFU BIN1 (11741810_x_at) / Fold change /veh BIN1 (11741810_x_at) / RFU WNT11 (11732464_a_at) / Fold change /veh WNT11 (11732464_a_at) / RFU C10orf10 (11716521_a_at) / Fold change /veh C10orf10 (11716521_a_at) / RFU C5orf56 (11738089_at) / Fold change /veh C5orf56 (11738089_at) / RFU CYB561 (11721691_x_at) / Fold change /veh CYB561 (11721691_x_at) / RFU ANKRD19P (11752326_a_at) / Fold change /veh ANKRD19P (11752326_a_at) / RFU OR2T12 /// OR2T33 /// OR2T8 (11738714_s_at) / Fold change /veh OR2T12 /// OR2T33 /// OR2T8 (11738714_s_at) / RFU VCAN (11748164_a_at) / Fold change /veh VCAN (11748164_a_at) / RFU JSRP1 (11732532_at) / Fold change /veh JSRP1 (11732532_at) / RFU KRTAP10-11 (11738290_x_at) / Fold change /veh KRTAP10-11 (11738290_x_at) / RFU MYO3A (11730013_a_at) / Fold change /veh MYO3A (11730013_a_at) / RFU EBF3 (11725865_a_at) / Fold change /veh EBF3 (11725865_a_at) / RFU CAMK2N1 (11719241_x_at) / Fold change /veh CAMK2N1 (11719241_x_at) / RFU C5orf56 (11738088_a_at) / Fold change /veh C5orf56 (11738088_a_at) / RFU OLFML3 (11715873_a_at) / Fold change /veh OLFML3 (11715873_a_at) / RFU LOC100653217 /// NTM (11731650_a_at) / Fold change /veh LOC100653217 /// NTM (11731650_a_at) / RFU MAPK11 (11762145_a_at) / Fold change /veh MAPK11 (11762145_a_at) / RFU FIZ1 (11724087_x_at) / Fold change /veh FIZ1 (11724087_x_at) / RFU OASL (11726364_x_at) / Fold change /veh OASL (11726364_x_at) / RFU SOX15 (11748057_x_at) / Fold change /veh SOX15 (11748057_x_at) / RFU CD79A (11719716_a_at) / Fold change /veh CD79A (11719716_a_at) / RFU HIST1H1D (11736915_at) / Fold change /veh HIST1H1D (11736915_at) / RFU CASKIN2 (11723855_a_at) / Fold change /veh CASKIN2 (11723855_a_at) / RFU LOC730098 (11760151_x_at) / Fold change /veh LOC730098 (11760151_x_at) / RFU OR4N2 (11742367_at) / Fold change /veh OR4N2 (11742367_at) / RFU PRRT2 (11749266_a_at) / Fold change /veh PRRT2 (11749266_a_at) / RFU SNX32 (11753110_a_at) / Fold change /veh SNX32 (11753110_a_at) / RFU CDHR5 (11726645_a_at) / Fold change /veh CDHR5 (11726645_a_at) / RFU RCAN1 (11760418_a_at) / Fold change /veh RCAN1 (11760418_a_at) / RFU FAM167A (11723789_a_at) / Fold change /veh FAM167A (11723789_a_at) / RFU FAM26E (11764081_at) / Fold change /veh FAM26E (11764081_at) / RFU ISYNA1 (11749810_s_at) / Fold change /veh ISYNA1 (11749810_s_at) / RFU ACY1 (11761880_at) / Fold change /veh ACY1 (11761880_at) / RFU 11764098_at / Fold change /veh 11764098_at / RFU SAMD14 (11745864_x_at) / Fold change /veh SAMD14 (11745864_x_at) / RFU NPB (11741838_a_at) / Fold change /veh NPB (11741838_a_at) / RFU TMPRSS6 (11731388_a_at) / Fold change /veh TMPRSS6 (11731388_a_at) / RFU KRTAP10-2 (11738614_at) / Fold change /veh KRTAP10-2 (11738614_at) / RFU ARHGAP8 /// PRR5-ARHGAP8 (11727945_x_at) / Fold change /veh ARHGAP8 /// PRR5-ARHGAP8 (11727945_x_at) / RFU KRTAP5-7 /// NADSYN1 (11734609_at) / Fold change /veh KRTAP5-7 /// NADSYN1 (11734609_at) / RFU RASL12 (11751679_a_at) / Fold change /veh RASL12 (11751679_a_at) / RFU CDKN2B (11736163_a_at) / Fold change /veh CDKN2B (11736163_a_at) / RFU PRF1 (11729649_at) / Fold change /veh PRF1 (11729649_at) / RFU, ZNF638 /// ZNF638-IT1 / Fold change vs veh, ZNF638 /// ZNF638-IT1 / RFU, PANK3 / Fold change vs veh, PANK3 / RFU, SH3YL1 / Fold change vs veh, SH3YL1 / RFU, ZEB2 / Fold change vs veh, ZEB2 / RFU, NRIP1 / Fold change vs veh, NRIP1 / RFU, PTTG1IP / Fold change vs veh, PTTG1IP / RFU, CAPN2 / Fold change vs veh, CAPN2 / RFU, MED14 / Fold change vs veh, MED14 / RFU, SNORA58 / Fold change vs veh, SNORA58 / RFU, C1orf63 / Fold change vs veh, C1orf63 / RFU, LRRFIP1 / Fold change vs veh, LRRFIP1 / RFU, NDUFAF7 / Fold change vs veh, NDUFAF7 / RFU, SLC12A2 / Fold change vs veh, SLC12A2 / RFU, IBTK / Fold change vs veh, IBTK / RFU, ESF1 / Fold change vs veh, ESF1 / Fold change vs veh, TMEM50B / RFU, TAOK1 / Fold change vs veh, TAOK1 / RFU, ACBD3 / Fold change vs veh, ACBD3 / RFU, TMA16 / Fold change vs veh, TMA16 / RFU, RWDD3 / Fold change vs veh, RWDD3 / RFU, BCAT1 / Fold change vs veh, BCAT1 / RFU, EDEM3 / Fold change vs veh, EDEM3 / RFU, TMEM33 / Fold change vs veh, TMEM33 / RFU, WDR75 / Fold change vs veh, WDR75 / RFU, AHCTF1 / Fold change vs veh, AHCTF1 / RFU, TFRC / Fold change vs veh, TFRC / RFU, ZDHHC17 / Fold change vs veh, ZDHHC17 / RFU, NOM1 / Fold change vs veh, NOM1 / RFU, ARL8B / Fold change vs veh, ARL8B / RFU, ZBTB11 / Fold change vs veh, ZBTB11 / RFU, TAMM41 / Fold change vs veh, TAMM41 / RFU, KIAA1704 /// LOC100996395 / Fold change vs veh, KIAA1704 /// LOC100996395 / RFU, ING1 / Fold change vs veh, ING1 / RFU, TRMT61B / Fold change vs veh, TRMT61B / RFU, FUBP3 / Fold change vs veh, FUBP3 / RFU, TP53 / Fold change vs veh, TP53 / RFU, TNKS2 / Fold change vs veh, TNKS2 / RFU, ZFP14 / Fold change vs veh, ZFP14 / RFU, ACTR2 / Fold change vs veh, ACTR2 / RFU, PPP3R1 / Fold change vs veh, PPP3R1 / RFU, PIK3R1 / Fold change vs veh, PIK3R1 / RFU, HNRNPA1 / Fold change vs veh, HNRNPA1 / RFU, RNF170 / Fold change vs veh, RNF170 / RFU, ZNF28 / Fold change vs veh, ZNF28 / RFU, RNGTT / Fold change vs veh, RNGTT / RFU, OGT / Fold change vs veh, OGT / RFU, BRD1 / Fold change vs veh, BRD1 / RFU, MARS / Fold change vs veh, MARS / RFU, ZNF655 / Fold change vs veh, ZNF655 / RFU, FAHD1 / Fold change vs veh, FAHD1 / RFU, BDP1 / Fold change vs veh, BDP1 / RFU, LRRCC1 / Fold change vs veh, LRRCC1 / RFU, ARID1A / Fold change vs veh, ARID1A / RFU, ZNF146 / Fold change vs veh, ZNF146 / RFU, ZNF330 / Fold change vs veh, ZNF330 / RFU, GPN3 / Fold change vs veh, GPN3 / RFU, C9orf123 / Fold change vs veh, C9orf123 / RFU, N4BP2L2 / Fold change vs veh, N4BP2L2 / RFU, ARFIP1 / Fold change vs veh, ARFIP1 / RFU, FAM179B / Fold change vs veh, FAM179B / RFU, BCL10 / Fold change vs veh, BCL10 / RFU, UHRF1BP1L / Fold change vs veh, UHRF1BP1L / RFU, BET1 / Fold change vs veh, BET1 / RFU, CNOT2 / Fold change vs veh, CNOT2 / RFU, ZNF268 / Fold change vs veh, ZNF268 / Fold change vs veh, ZNF507 / RFU, DGCR2 / Fold change vs veh, DGCR2 / RFU, WDSUB1 / Fold change vs veh, WDSUB1 / Fold change vs veh, HSP90B1 /// MIR3652 / RFU, ADSS / Fold change vs veh, ADSS / RFU, GK / Fold change vs veh, GK / RFU, ZNF148 / Fold change vs veh, ZNF148 / RFU, TAF9 / Fold change vs veh, TAF9 / RFU, SLC1A5 / Fold change vs veh, SLC1A5 / RFU, SLMO2 / Fold change vs veh, SLMO2 / RFU, ABCC4 / Fold change vs veh, ABCC4 / RFU, LOC101060439 /// RAP1B / Fold change vs veh, LOC101060439 /// RAP1B / RFU, RFX7 / Fold change vs veh, RFX7 / RFU, GTPBP10 / Fold change vs veh, GTPBP10 / RFU, CNEP1R1 / Fold change vs veh, CNEP1R1 / RFU, BIVM-ERCC5 /// ERCC5 / Fold change vs veh, BIVM-ERCC5 /// ERCC5 / RFU, ILF3 / Fold change vs veh, ILF3 / RFU 11762660_at / Fold change /veh 11762660_at / RFU VCAN (11757783_s_at) / Fold change /veh VCAN (11757783_s_at) / RFU DDX43 (11728927_at) / Fold change /veh DDX43 (11728927_at) / RFU KRT8 (11758188_x_at) / Fold change /veh KRT8 (11758188_x_at) / RFU NKD1 (11759106_at) / Fold change /veh NKD1 (11759106_at) / RFU SRD5A1 (11742802_a_at) / Fold change /veh SRD5A1 (11742802_a_at) / RFU TPSAB1 /// TPSB2 (11721975_s_at) / Fold change /veh TPSAB1 /// TPSB2 (11721975_s_at) / RFU GSTM3 (11746129_a_at) / Fold change /veh GSTM3 (11746129_a_at) / RFU IL23R (11737362_x_at) / Fold change /veh IL23R (11737362_x_at) / RFU TMEM51 (11727254_a_at) / Fold change /veh TMEM51 (11727254_a_at) / RFU PIWIL2 (11732686_x_at) / Fold change /veh PIWIL2 (11732686_x_at) / RFU ORM1 (11744905_x_at) / Fold change /veh ORM1 (11744905_x_at) / RFU CCDC152 (11743942_at) / Fold change /veh CCDC152 (11743942_at) / RFU ECM1 (11717891_a_at) / Fold change /veh ECM1 (11717891_a_at) / RFU IL23R (11748794_a_at) / Fold change /veh IL23R (11748794_a_at) / RFU TNFAIP8L3 (11732012_x_at) / Fold change /veh TNFAIP8L3 (11732012_x_at) / RFU MBOAT4 (11741988_at) / Fold change /veh MBOAT4 (11741988_at) / RFU 11764193_at / Fold change /veh 11764193_at / RFU TMEM53 (11763286_at) / Fold change /veh TMEM53 (11763286_at) / RFU MAGEB2 (11727129_at) / Fold change /veh MAGEB2 (11727129_at) / RFU TMEM200A (11744735_a_at) / Fold change /veh TMEM200A (11744735_a_at) / RFU CCDC152 (11751479_a_at) / Fold change /veh CCDC152 (11751479_a_at) / RFU FAM211A (11726209_a_at) / Fold change /veh FAM211A (11726209_a_at) / RFU RGS16 (11746705_a_at) / Fold change /veh RGS16 (11746705_a_at) / RFU VCAN (11755009_s_at) / Fold change /veh VCAN (11755009_s_at) / RFU RHOB (11743442_s_at) / Fold change /veh RHOB (11743442_s_at) / RFU RGS16 (11720943_a_at) / Fold change /veh RGS16 (11720943_a_at) / RFU RGS16 (11720944_at) / Fold change /veh RGS16 (11720944_at) / RFU, VPS4B / Fold change vs veh, VPS4B / RFU, CREB1 / Fold change vs veh, CREB1 / RFU, DNAJC13 / Fold change vs veh, DNAJC13 / RFU, GNAQ / Fold change vs veh, GNAQ / RFU, CDK5R1 / Fold change vs veh, CDK5R1 / RFU, ZRANB3 / Fold change vs veh, ZRANB3 / RFU, CUL4A / Fold change vs veh, CUL4A / RFU, CCNY / Fold change vs veh, CCNY / RFU, UFL1 / Fold change vs veh, UFL1 / RFU, COG3 / Fold change vs veh, COG3 / RFU, DIAPH2 / Fold change vs veh, DIAPH2 / RFU, SKA2 / Fold change vs veh, SKA2 / RFU, AFF3 / Fold change vs veh, AFF3 / RFU, LMF1 / Fold change vs veh, LMF1 / RFU, IPO11 / Fold change vs veh, IPO11 / RFU, DFFB / Fold change vs veh, DFFB / RFU, FOXP1 / Fold change vs veh, FOXP1 / RFU, CARD8 / Fold change vs veh, CARD8 / RFU, STRN3 / Fold change vs veh, STRN3 / RFU, ADK / Fold change vs veh, ADK / RFU, RASSF2 / Fold change vs veh, RASSF2 / RFU, WIPF1 / Fold change vs veh, WIPF1 / RFU, LARP1B / Fold change vs veh, LARP1B / RFU, RASA1 / Fold change vs veh, RASA1 / RFU, RB1 / Fold change vs veh, RB1 / RFU, PPFIA1 / Fold change vs veh, PPFIA1 / RFU, MAT2A / Fold change vs veh, MAT2A / RFU, CCT5 / Fold change vs veh, CCT5 / RFU, WDR92 / Fold change vs veh, WDR92 / RFU, CUX1 / Fold change vs veh, CUX1 / RFU, TTC7A / Fold change vs veh, TTC7A / RFU, TMEM135 / Fold change vs veh, TMEM135 / RFU, DEPTOR / Fold change vs veh, DEPTOR / RFU, CPM / Fold change vs veh, CPM / RFU, DNAJB6 / Fold change vs veh, DNAJB6 / RFU, CACNA2D3 / Fold change vs veh, CACNA2D3 / RFU, DTX4 / Fold change vs veh, DTX4 / RFU, TFCP2 / Fold change vs veh, TFCP2 / RFU, GMCL1 /// GMCL1P1 / Fold change vs veh, GMCL1 /// GMCL1P1 / RFU, AEBP2 / Fold change vs veh, AEBP2 / RFU, SNHG1 /// SNORD22 /// SNORD25 /// SNORD26 /// SNORD27 /// SNORD28 /// SNORD29 /// SNORD31 / Fold change vs veh, SNHG1 /// SNORD22 /// SNORD25 /// SNORD26 /// SNORD27 /// SNORD28 /// SNORD29 /// SNORD31 / Fold change (Aza/veh), C12orf56 (ProbeSet 11735607_a_at) / Fold change (ACY-1035/veh), C12orf56 (ProbeSet 11735607_a_at) / Fold change (Aza/veh), FGFR1OP (ProbeSet 11751329_s_at) / Fold change (ACY-1035/veh), FGFR1OP (ProbeSet 11751329_s_at) / Fold change (Aza/veh), VPS36 (ProbeSet 11739960_a_at) / Fold change (ACY-1035/veh), VPS36 (ProbeSet 11739960_a_at) / RFU SYPL1 (11715823_x_at) / Fold change /veh SYPL1 (11715823_x_at) / RFU IGFBP7 (11715501_s_at) / Fold change /veh IGFBP7 (11715501_s_at) / RFU REEP3 (11722064_at) / Fold change /veh REEP3 (11722064_at) / RFU IGLL1 (11728026_x_at) / Fold change /veh IGLL1 (11728026_x_at): dose or concentration left out as unconfirmed
Conditions: ProbeSet 11720566_at; LIST D

With `Nc1ccc(-c2cccs2)cc1NC(=O)c1ccc2c(c1)cc(C1CC1)n2CCN1CCOCC1` [ACY-1035] the “Fold change vs veh, BCAT1” value was 0.85.
